Where two headings read alike, the source gives them in different places.

Assay [1] addresses T1, AKT2 (Homo sapiens, UniProt P31751).
T1 construct: expressed in transfected cells; host or cells: HEK293
The assay can be described thus: Live cell AKT2 target engagement by NanoBRET competitive probe displacement in HEK293 cells. It counts as binding. The note with it: 2 h at 37° C., read-out: AKT2 IC50. In general terms: Bioluminescence resonance energy transfer reports proximity on the nanometre scale.

Assay [2] has as its target T2, AKT1 WT (Homo sapiens, UniProt P31749).
T2 construct: expressed in transfected cells; host or cells: HEK293
The experiment in a line: Live cell AKT1 WT target engagement by NanoBRET competitive probe displacement in HEK293 cells. The assay is classed as binding. The note with it: 2 h at 37° C., read-out: AKT1 WT IC50.

Setting [3] is: NanoBRET live cell target engagement, HEK293 cells.
Setting [4] is: NanoBRET competitive probe displacement, live HEK293 cells.

T1 sequence (P31751 whole entry): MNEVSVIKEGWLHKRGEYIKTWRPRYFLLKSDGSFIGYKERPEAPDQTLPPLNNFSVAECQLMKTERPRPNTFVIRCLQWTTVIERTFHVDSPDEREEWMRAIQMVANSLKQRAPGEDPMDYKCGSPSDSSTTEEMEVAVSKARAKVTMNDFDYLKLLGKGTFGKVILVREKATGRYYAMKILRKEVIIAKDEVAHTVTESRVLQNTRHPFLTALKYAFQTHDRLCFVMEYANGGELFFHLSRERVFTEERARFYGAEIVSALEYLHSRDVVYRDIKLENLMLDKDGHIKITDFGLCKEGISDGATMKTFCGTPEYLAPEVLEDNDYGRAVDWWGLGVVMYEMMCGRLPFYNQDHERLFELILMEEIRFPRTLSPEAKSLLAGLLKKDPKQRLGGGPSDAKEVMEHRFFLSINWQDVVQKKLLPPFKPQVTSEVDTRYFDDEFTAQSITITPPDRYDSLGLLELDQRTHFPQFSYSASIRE
T2 sequence (P31749 whole entry): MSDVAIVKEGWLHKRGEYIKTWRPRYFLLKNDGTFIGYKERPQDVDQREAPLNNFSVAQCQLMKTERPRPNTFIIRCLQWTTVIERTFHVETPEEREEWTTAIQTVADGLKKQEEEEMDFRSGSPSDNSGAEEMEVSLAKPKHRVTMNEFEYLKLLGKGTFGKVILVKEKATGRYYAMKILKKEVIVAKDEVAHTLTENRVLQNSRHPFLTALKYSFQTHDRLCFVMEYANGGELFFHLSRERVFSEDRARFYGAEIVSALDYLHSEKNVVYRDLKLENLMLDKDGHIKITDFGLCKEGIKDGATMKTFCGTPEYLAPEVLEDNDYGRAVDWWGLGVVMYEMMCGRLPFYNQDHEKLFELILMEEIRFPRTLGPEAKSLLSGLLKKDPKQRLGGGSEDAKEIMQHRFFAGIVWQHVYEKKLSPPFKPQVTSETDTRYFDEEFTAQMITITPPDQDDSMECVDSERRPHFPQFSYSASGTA

Turning to `Nc1ncccc1-c1nc2ccc(-n3cccn3)nc2n1-c1ccc2c(c1)CC[C@@H]2NC(=O)c1ccccc1F` [Compound 333], the results for the IC50 in assay [1] (setting [3]) and in assay [2] (setting [3]) were 58.7 nM and 6.14 nM, respectively.

Take `Nc1ncccc1-c1nc2ccc(-n3cccn3)nc2n1-c1ccc2c(c1)CC[C@@H]2NC(=O)c1cnc(C(F)F)cc1F` [Compound 97]: the IC50 in assay [1] (setting [3]) worked out at 83.5 nM; in assay [2] (setting [3]) it was 21.9 nM.

As for `COc1ccn(-c2ccc3nc(-c4cccnc4N)n(-c4ccc5c(c4)CC[C@@H]5NC4CN(C(=O)C5CC5)C4)c3n2)n1` [Compound 484], the IC50 in assay [1] (setting [4]) turned out to be 3850 nM; in assay [2] (setting [4]), 28.4 nM.

As for `Nc1ncccc1-c1nc2ccc(-n3ccc(N4CCOCC4)n3)nc2n1-c1ccc2c(c1)CC(F)[C@@H]2NC1CCN(C(=O)C2CC2)CC1` (some centres unmarked) [Compound 544], the IC50 came to 130 nM in assay [1] (setting [4]) and 6.24 nM in assay [2] (setting [4]).

Take `Nc1ncccc1-c1nc2ccc(-n3cccn3)nc2n1-c1ccc2c(c1)CC[C@@H]2NC(=O)c1cnc2c(c1)COC2` [Compound 106]: the IC50 came to 36 nM in assay [1] (setting [3]) and 6.39 nM in assay [2] (setting [3]).

As for `Cc1ccc(C(=O)N[C@H]2CCc3cc(-n4c(-c5cccnc5N)nc5ccc(-c6ccn(C(F)F)n6)nc54)ccc32)cn1` [Compound 73], the IC50 in assay [1] (setting [3]) is 49.8 nM; in assay [2] (setting [3]), 9.03 nM.

For the compound `C#Cc1ncccc1C(=O)N[C@H]1CCc2cc(-n3c(-c4cccnc4N)nc4ccc(-n5cccn5)nc43)ccc21` [Compound 113], the values for the IC50 in assay [1] (setting [3]) and in assay [2] (setting [3]) were 537 nM and 21 nM, respectively.

Consider `Cc1cnc(C(=O)N[C@H]2CCc3cc(-n4c(-c5cccnc5N)nc5ccc(-n6cccn6)nc54)ccc32)cn1` [Compound 185], for which the IC50 was found to be 1540 nM in assay [1] (setting [3]) and 65.3 nM in assay [2] (setting [3]).

In the case of `COc1cc(C(=O)N[C@H]2CCc3cc(-n4c(-c5cccnc5N)nc5ccc(-n6cccn6)nc54)ccc32)cnn1` [Compound 377], the IC50 in assay [1] (setting [3]) is 22.2 nM; in assay [2] (setting [3]), 2.9 nM.

Take `COc1cc(-n2cccn2)nc2c1nc(-c1cccnc1N)n2-c1ccc2c(c1)CC[C@@H]2NC(=O)c1ccc(C(F)F)nc1` [Compound 122, (S)—N-(5-(2-(2-aminopyridin-3-yl)-7-methoxy-5-(1H-pyrazol-1-yl)-3H-imidazo[4,5-b]pyridin-3-yl)-2,3-dihydro-1H-inden-1-yl)-6-(difluoromethyl)nicotinamide]: the IC50 amounted to 34.6 nM in assay [1] (setting [3]) and 10.6 nM in assay [2] (setting [3]).

`Nc1ncc(C(=O)N[C@H]2CCc3cc(-n4c(-c5cccnc5N)nc5ccc(-n6cccn6)nc54)ccc32)cc1F` [Compound 298]: the IC50 in assay [1] (setting [3]) is 51.6 nM; in assay [2] (setting [3]), 7.16 nM.

Turning to `Cc1csc(-c2ccc3nc(-c4cccnc4N)n(-c4ccc5c(c4)CC[C@@H]5NC(=O)c4nccnc4C)c3n2)n1` [Compound 302], the IC50 turned out to be 456 nM in assay [1] (setting [3]) and 20.9 nM in assay [2] (setting [3]).

Take `Cn1ncc(-c2ccc3nc(-c4cccnc4N)n(-c4ccc5c(c4)CC[C@@H]5n4ccnn4)c3n2)n1` [Compound 247]: the values for the IC50 in assay [1] (setting [3]) and in assay [2] (setting [3]) were 1570 nM and 60.4 nM, respectively.

As to `CN1CC(C#Cc2ccc3nc(-c4cccnc4N)n(-c4ccc5c(c4)CC[C@@H]5NC(=O)c4ccc(C(F)F)nc4)c3n2)C1` [Compound 411, (S)—N-(5-(2-(2-aminopyridin-3-yl)-5-((1-methylazetidin-3-yl)ethynyl)-3H-imidazo[4,5-b]pyridin-3-yl)-2,3-dihydro-1H-inden-1-yl)-6-(difluoromethyl)nicotinamide], the IC50 in assay [1] (setting [4]) was over 10000 nM; in assay [2] (setting [4]), 976 nM.

Consider `Nc1ncccc1-c1nc2ccc(-n3ccc(NC4CC4)n3)nc2n1-c1ccc2c(c1)CC[C@@H]2NC1CCN(C(=O)C2CC2)CC1` [Compound 599], for which the IC50 came out at 1280 nM in assay [1] (setting [4]) and 25.4 nM in assay [2] (setting [4]).

As for `Nc1ncccc1-c1nc2ccc(-n3cccn3)nc2n1-c1ccc2c(c1)CC[C@@H]2NC1CCN(c2cccnc2)C1` (some centres unmarked) [Compound 471], the concentration for half-maximal inhibition (IC50) was found to be 1040 nM in assay [1] (setting [4]) and 39 nM in assay [2] (setting [4]).

For the compound `Nc1ncccc1-c1nc2ccc(-n3nccn3)nc2n1-c1ccc2c(c1)CC[C@@H]2NC(=O)c1cnc(C(F)F)o1` [Compound 538], the IC50 was 2910 nM in assay [1] (setting [4]) and 25.1 nM in assay [2] (setting [4]).

Regarding `CN(C)Cc1cn([C@H]2CCc3cc(-n4c(-c5cccnc5N)nc5ccc(-n6cccn6)nc54)ccc32)nn1` [Compound 218], the 50% inhibitory concentration (IC50) in assay [1] (setting [3]) worked out at 4400 nM; in assay [2] (setting [3]) it was 643 nM.

As for `Cc1ncsc1C(=O)N[C@H]1CCc2cc(-n3c(-c4cccnc4N)nc4ccc(-n5cccn5)nc43)ccc21` [Compound 99], the values for the IC50 in assay [1] (setting [3]) and in assay [2] (setting [3]) were 260 nM and 28.4 nM, respectively.

With `Cc1ncc(C(=O)N[C@H]2CCc3cc(-n4c(-c5cccnc5N)nc5ccc(-n6cccn6)nc54)ccc32)c(C(F)F)n1` [Compound 151, (S)—N-(5-(2-(2-aminopyridin-3-yl)-5-(1H-pyrazol-1-yl)-3H-imidazo[4,5-b]pyridin-3-yl)-2,3-dihydro-1H-inden-1-yl)-4-(difluoromethyl)-2-methylpyrimidine-5-carboxamide], the IC50 in assay [1] (setting [3]) came to 366 nM; in assay [2] (setting [3]) it was 22.8 nM.

As to `CS(=O)(=O)Nc1ccc(C(=O)N[C@H]2CCc3cc(-n4c(-c5cccnc5N)nc5ccc(-n6cccn6)nc54)ccc32)cc1` [Compound 195], the IC50 came to 48.9 nM in assay [1] (setting [3]) and 12.4 nM in assay [2] (setting [3]).

`Cc1cncc(C(=O)N[C@H]2CCc3cc(-n4c(-c5cccnc5N)nc5ccc(-n6cccn6)nc54)ccc32)n1` [Compound 186]: the figures for the concentration for half-maximal inhibition (IC50) in assay [1] (setting [3]) and in assay [2] (setting [3]) were 3270 nM and 76.3 nM, respectively.

For `CN(CC1CC1)[C@H]1CCc2cc(-n3c(-c4cccnc4N)nc4ccc(-n5cccn5)nc43)ccc21` [Compound 437], the values for the IC50 in assay [1] (setting [4]) and in assay [2] (setting [4]) were 1570 nM and 80.7 nM, respectively.

For the compound `Cc1cn(C)nc1C(=O)N[C@H]1CCc2cc(-n3c(-c4cccnc4N)nc4ccc(-n5cccn5)nc43)ccc21` [Compound 172], the IC50 stood at 2390 nM in assay [1] (setting [3]) and 203 nM in assay [2] (setting [3]).

For the compound `Nc1ncccc1-c1nc2ccc(-n3cccn3)nc2n1-c1ccc2c(c1)CC[C@@H]2NC(=O)c1ccc(F)c(Cl)c1` [Compound 337], the IC50 in assay [1] (setting [3]) stood at 82.2 nM; in assay [2] (setting [3]), 8.65 nM.

As to `Nc1ncccc1-c1nc2ccc(N3CCOCC3)nc2n1-c1ccc2c(c1)CC[C@@H]2NC(=O)c1ccc(C(F)F)nc1` [Compound 136], the half-inhibitory concentration (IC50) turned out to be 284 nM in assay [1] (setting [3]) and 19.8 nM in assay [2] (setting [3]).

On to `Nc1ncccc1-c1nc2ccc(-n3cccn3)nc2n1-c1ccc2c(c1)CC[C@@H]2NC1COC1` [Compound 111], for which the IC50 was 4500 nM in assay [1] (setting [3]) and 178 nM in assay [2] (setting [3]).

`Cc1cc(C(=O)N[C@H]2CCc3cc(-n4c(-c5cccnc5N)nc5ccc(-n6cccn6)nc54)ccc32)cnc1C` [Compound 115]: the figures for the IC50 in assay [1] (setting [3]) and in assay [2] (setting [3]) were 31.7 nM and 5.16 nM, respectively.

As for `COCc1ncccc1C(=O)N[C@H]1CCc2cc(-n3c(-c4cccnc4N)nc4ccc(-n5cccn5)nc43)ccc21` [Compound 149], the IC50 in assay [1] (setting [3]) turned out to be 1580 nM; in assay [2] (setting [3]) it was 50.3 nM.

For `Nc1ncccc1-c1nc2ccc(-n3cccn3)nc2n1-c1ccc2c(c1)CC[C@@H]2NCc1ccc(C(F)F)nc1` [Compound 84], the IC50 is 1960 nM in assay [1] (setting [3]) and 113 nM in assay [2] (setting [3]).

Take `Nc1ncccc1-c1nc2ccc(-n3cccn3)nc2n1-c1ccc2c(c1)CC[C@@H]2NC1CCc2cnccc2C1` (single isomer, unassigned) [Compound 463]: the figures for the IC50 in assay [1] (setting [4]) and in assay [2] (setting [4]) were 1080 nM and 27 nM, respectively.

By IC50 is commonly meant the concentration that gives 50% inhibition.

The values above are taken from US12624034B2, “Non-covalent modifiers of AKT1 and uses thereof” (Terremoto Biosciences, Inc., priority 2023, dated 2026).
